Eleven compounds from US9410217B2, “Method of reducing a fermentation and/or enzyme inhibitor in a saccharide-containing composition” (priority 2014, dated 2016) can be followed below.

Several values for one entry are separate records, joined by “and”; a condition that tells them apart may be missing. Equal entries are not always repeated. Where two headings read alike, the source gives them in different places.

For one experiment, the system named is Saccharomyces cerevisiae. Nature of the experiment: Fermentation test of treated sugar liquor with yeast. The class given is cell-based. As to the method: The saccharide-containing compositions of Examples 1 and 3 were subjected to a fermentation test with the yeast Saccharomyces cerevisiae. In the fermentation test, 1% yeast extract and 2% peptone were added to the saccharide-containing compositions of Examples 1 and 3 as growth nutrients, and these compositions were then inoculated with 5% inoculum of Saccharomyces cerevisiae (optical density 10). If more than 80% of sugars were consumed in 72 hours of fermentation, the test is considered a “pass” (i.e., a satisfactory test result).
The saccharide-containing compositions were subjected to a fermentation test with the yeast Saccharomyces cerevisiae. In the fermentation test, 1% yeast extract and 2% peptone were added to the saccharide-containing compositions as growth nutrients, and these compositions were then inoculated with 5% inoculum of Saccharomyces cerevisiae (optical density 10). If more than 80% of sugars were consumed in 72 hours of fermentation, the test is considered a “pass” (i.e., a satisfactory test result).

Experiment [1] is described as follows: Reduction of HMF in sugar liquor after contact with amine. As to the method:
Sugar liquor was prepared by a two-step hydrolysis process with subsequent refining. A slurry of particulate biomass was first subjected to a first hydrolysis step at about 190-240° C. and 50-80 bar for 1-120 min. The resulting solids were subjected to supercritical or near-critical water conditions at about 374-450° C. and 221-300 bar for less than 1 minute. The resulting liquid portion was concentrated to about 250-300 g/L of monomer sugar equivalent and acid hydrolyzed at about 100-200° C. for 1 hour. The acid-hydrolyzed liquor was filtered and neutralized with sodium hydroxide to a pH of about 5-7. After that, the liquid portion was overlimed with calcium oxide at pH of about 8-10 and filtered. The final pH adjustment to about 5-7 was done with 70% sulfuric acid. Overliming was performed to produce the sugar liquor used in these examples, and an aldehyde compound, HMF, subsequently re-added to simulate a sugar liquor that is not overlimed.
The pH of 100 g of the sugar liquor was adjusted to 6 with sodium hydroxide prior to addition of the amine. 1 g of m-phenylenediamine (MPD) was added to the sugar liquor, and the mixture was shaken for 1 hour.
Using the same procedure to prepare the sugar liquor as described in Example 1, the pH of 100 g of the sugar liquor was adjusted to 6 with NaOH prior to addition of the amine. For each sample, 1 g of amine was added, and the mixture was shaken for 1 hour.
Using the same procedure to prepare the sugar liquor as described in Example 1, the pH of 100 g of the sugar liquor was adjusted to 6 with sodium hydroxide prior to addition of the amine. For each sample, 1 g of amine was added, and the mixture was shaken for 1 hour.

Another experiment relates to Pichia stipitis. As to the kind of experiment: Fermentation testing of treated xylose monomer stream. The class given is cell-based. As to the method: For fermentation testing, the pH was adjusted back to 5 with H2SO4 and fermentation was performed with the xylose fermenting organism Pichia stipitis.
Experiment [2] is described as follows: Reduction of syringaldehyde in xylose monomer stream (GC/MS). Conditions: for Syringaldehyde: 100 g xylose monomer stream after treatment, shaken 30-60 min, untreated control 321.5 ppm; for syringaldehyde reduction (in words): xylose monomer stream, from about 321.5 ppm, pass is less than about 50 ppm. How it is done: The acid-hydrolyzed liquor was filtered and then neutralized with sodium hydroxide to a pH of about 5-7 to produce the xylose monomer stream. Five samples labeled Samples 1-5 were evaluated as described in Table 2. Sample 1 was an untreated control. […] The flask was shaken for 30-60 min, and Samples 2 and 5 were then analyzed for syringaldehyde by GC/MS. […] The flask was shaken for about 30-60 min, adjusted to pH of about 5 with H2SO4, and then filtered. The resulting liquid portion was analyzed by GC/MS. For Sample 4, the pH of 100 g of the xylose monomer stream was adjusted to 5-6 with NH4OH, the flask was shaken for 30-60 min, and then the samples were analyzed by GC/MS.

Where [3] appears, read: sugar liquor after contact, 1 g amine per 100 g liquor, pH 6, shaken 1 hour.

For the compound `Cc1ccc(N)cc1N` [DAT, 2,4-diaminotoluene], the “% Glucose Consumed” value in the experiment on Saccharomyces cerevisiae (24 hr) is reported as 51.55%; in the experiment on Saccharomyces cerevisiae (48 hr), 96.03%; with Saccharomyces cerevisiae (72 hr), 95.88%. The Ethanol in the experiment with Saccharomyces cerevisiae (24 hr) was 43.15 g/L; in the experiment with Saccharomyces cerevisiae (48 hr) it was 92.29 g/L; in the experiment with Saccharomyces cerevisiae (72 hr) it was 86.38 g/L. Further, the HMF in experiment [1] (setting [3]) is 0.74 g/L.

Regarding `Nc1cccc(N)c1` [MPD, m-phenylenediamine], in the experiment on Saccharomyces cerevisiae (24 hr), the “% Glucose Consumed” value turned out to be 95.64%. Besides, the Ethanol in the experiment on Saccharomyces cerevisiae (24 hr) is 77.25 g/L; in the experiment on Pichia stipitis (fermentation time 48 hr), 1.80 g/L; in the experiment with Pichia stipitis (fermentation time 72 hr) it was 4.86 g/L; in the experiment with Pichia stipitis (fermentation time 96 hr) it was 8.22 g/L. The “fermentability of treated sample (in words)” value in the experiment on Pichia stipitis (xylose monomer stream, pH adjusted back to 5) is “fermentable”. This compound also returned an HMF in experiment [1] (setting [3]) of 1.50 g/L. Also, in experiment [2], the Syringaldehyde entry is given as “Not detected”. For the same compound, the “syringaldehyde reduction (in words)” value in experiment [2] is given as “below detectable levels”.

Consider `N.O` [NH4OH], for which, in experiment [2], the Syringaldehyde was found to be 147.7 ppm and the “syringaldehyde reduction (in words)” value was “did not reduce the concentration of syringaldehyde to below a detectable level”.

On to `[BH4-].[Na+]` [NaBH4], for which, in experiment [2], the Syringaldehyde stood at 218.4 ppm and the “syringaldehyde reduction (in words)” value is on record as “did not reduce the concentration of syringaldehyde to below a detectable level”.

As for `Nc1ccccc1N` [OPD, o-phenylenediamine], the results for the “% Glucose Consumed” value with Saccharomyces cerevisiae (24 hr), in the experiment on Saccharomyces cerevisiae (48 hr) and in the experiment on Saccharomyces cerevisiae (72 hr) were 24.24%, 96.61% and 96.53%, respectively. Besides, the Ethanol with Saccharomyces cerevisiae (24 hr) came to 16.80 g/L; with Saccharomyces cerevisiae (48 hr), 86.88 g/L; with Saccharomyces cerevisiae (72 hr), 90.28 g/L. Further, the HMF in the experiment with Saccharomyces cerevisiae (72 hr) came to 0.36 g/L.

Regarding `Nc1ccc(N)cc1` [PPD, p-phenylenediamine], the “% Glucose Consumed” value is listed as 24.18% with Saccharomyces cerevisiae (24 hr), 97.75% with Saccharomyces cerevisiae (48 hr) and 97.40% with Saccharomyces cerevisiae (72 hr). In addition, the Ethanol is 13.74 g/L with Saccharomyces cerevisiae (24 hr), 84.75 g/L in the experiment with Saccharomyces cerevisiae (48 hr) and 84.79 g/L in the experiment with Saccharomyces cerevisiae (72 hr). Besides, the HMF with Saccharomyces cerevisiae (24 hr) was 0.30 g/L; in the experiment on Saccharomyces cerevisiae (48 hr) it was 0.37 g/L; in experiment [1] (setting [3]) it was 3.40 g/L.

As to `Nc1ccccc1` [aniline], the “% Glucose Consumed” value in the experiment on Saccharomyces cerevisiae (24 hr) and in the experiment on Saccharomyces cerevisiae (48 hr) was 5.19% each time. Moreover, the Ethanol in the experiment with Saccharomyces cerevisiae (24 hr) is 1.55 g/L; in the experiment with Saccharomyces cerevisiae (48 hr), 1.51 g/L. Moreover, the HMF in the experiment with Saccharomyces cerevisiae (24 hr) is 5.2 g/L; in the experiment on Saccharomyces cerevisiae (48 hr) it was 4.89 g/L; in experiment [1] (setting [3]), 7.43 g/L.

`NCCO` [ethanolamine]: the “% Glucose Consumed” value is 7.92% with Saccharomyces cerevisiae (24 hr), 6.29% in the experiment with Saccharomyces cerevisiae (48 hr), 7.45% in the experiment with Saccharomyces cerevisiae (72 hr) and 12.73% in the experiment on Saccharomyces cerevisiae (120 hr). The Ethanol in the experiment on Saccharomyces cerevisiae (24 hr) came to 3.53 g/L; in the experiment on Saccharomyces cerevisiae (48 hr), 2.74 g/L; with Saccharomyces cerevisiae (72 hr), 2.92 g/L; in the experiment on Saccharomyces cerevisiae (120 hr), 3.54 g/L. Also, the HMF came out at 5.24 g/L in the experiment on Saccharomyces cerevisiae (24 hr); 5.03 g/L with Saccharomyces cerevisiae (48 hr); 4.67 g/L in the experiment on Saccharomyces cerevisiae (72 hr); 4.46 g/L in the experiment with Saccharomyces cerevisiae (120 hr); 6.01 g/L in experiment [1] (setting [3]).

For `Nc1nc(N)nc(N)n1` [melamine], the “% Glucose Consumed” value in the experiment with Saccharomyces cerevisiae (0 hr) came to 0%; in the experiment with Saccharomyces cerevisiae (24 hr) it was 4.24%; in the experiment with Saccharomyces cerevisiae (48 hr), 4.15%; in the experiment on Saccharomyces cerevisiae (72 hr), 4.97%. In addition, the HMF came to 7.52 g/L with Saccharomyces cerevisiae (0 hr); 6.59 g/L in the experiment with Saccharomyces cerevisiae (24 hr); 6.47 g/L in the experiment with Saccharomyces cerevisiae (48 hr); 6.45 g/L in the experiment with Saccharomyces cerevisiae (72 hr); 7.52 g/L in experiment [1] (setting [3]). Further, the values for the Ethanol with Saccharomyces cerevisiae (24 hr), in the experiment on Saccharomyces cerevisiae (48 hr) and with Saccharomyces cerevisiae (72 hr) were 2.13 g/L, 2.48 g/L and 2.1 g/L, respectively.

For the compound `C1CCNCC1` [piperidine], in the experiment with Saccharomyces cerevisiae, the “% Glucose Consumed” value is 5.39% and 8.05% and 5.62% and 5.78%; the Ethanol was 2.37 g/L and 2.49 g/L and 2.71 g/L and 2.15 g/L; the HMF was 5.31 g/L and 4.83 g/L and 5.51 g/L and 5.61 g/L. Further, the HMF in experiment [1] (pH 6) is 6.13 g/L.

In the case of `NC(N)=O` [urea], the “% Glucose Consumed” value in the experiment with Saccharomyces cerevisiae (0 hr) came out at 0%; with Saccharomyces cerevisiae (24 hr), 6.18%; with Saccharomyces cerevisiae (48 hr), 4.49%; in the experiment with Saccharomyces cerevisiae (72 hr), 6.35%; in the experiment with Saccharomyces cerevisiae (120 hr), 8.49%. Besides, the Ethanol is 1.38 g/L in the experiment on Saccharomyces cerevisiae (0 hr); 2.72 g/L in the experiment on Saccharomyces cerevisiae (24 hr); 2.23 g/L with Saccharomyces cerevisiae (48 hr); 2.39 g/L with Saccharomyces cerevisiae (72 hr); 2.41 g/L with Saccharomyces cerevisiae (120 hr). The HMF was 7.44 g/L in the experiment on Saccharomyces cerevisiae (0 hr); 6.58 g/L with Saccharomyces cerevisiae (24 hr); 6.49 g/L with Saccharomyces cerevisiae (48 hr); 6.06 g/L in the experiment on Saccharomyces cerevisiae (72 hr); 5.66 g/L in the experiment on Saccharomyces cerevisiae (120 hr); 7.44 g/L in experiment [1] (setting [3]).
